Measured values reported in patent US5955505A, “Glutamic acid receptor agonist” (Nippon Suisan Kaisha, Ltd., priority 1995, dated 1999).
Entries after “also recorded” stand apart in the source; their conditions may differ.

Assays:
non-NMDA receptors [1] = assay: Potentiation of AMPA- or kainic acid-elicited membrane current in Xenopus oocytes injected with rat hippocampus poly(A)+ RNA (two-electrode voltage clamp)
Procedure: By use of an improved method of Masu's Xenopus oocyte expression system [Nature 329,836 (1987)] an electrophysiological analysis was conducted.
(1) Preparation of poly(A)^+ RNA isolated from a rat hippocampus.
A hippocampus region was isolated from a rat and homogenized in the presence of […] and total RNA was extracted from the hippocampus by means of the ultracentrifugating method utilizing cesium chloride. Poly(A)^+ RNA was refined from the obtained RNA by use of oligo dT cellulose column.
(2) Expression of protein in Xenopus oocytes
(§1) 50 nl of the poly(A)^+ RNA (1 μg/μl) isolated was injected into an oocyte by a micromanipulator and the oocytes were cultured in a Barth's medium (88 mM NaCl, 1 mM KCl, 2.4 mM NaHCO3, 0.3 mM Ca(NO3)2, 0.41 mM CaCl2, 0.82 mM MgSO4, 10 μg/ml sodium penicillin, 10 μg/ml streptomycin sulfate, and 15 mM HEPES) at 19° C. for three to four days and used for measurement.
(3) Electrophysiological and pharmacological experiment by two-electrodes voltage clamp method.
(§2) The above-mentioned oocyte was set in a chamber under perfusion of frog Ringer's solution (120 mM NaCl, 2 mM KCl, 1.8 mM CaCl2, and 5 mM HEPES, pH 7.4) and microelectrodes were inserted into oocytes and the membrane potential was fixed at -70 mV. Subsequently, another frog Ringer's solution in which AMPA (100 μM) or kainate(KA) (100 μM) both of which are agonists for non-NMDA receptors was dissolved was substituted for the original Ringer's solution and then an inward membrane current was measured.
The membrane potential was fixed at -70 mV. The response was defined as one which was generated on the specimen under perfusion of frog Ringer's solution in which AMPA or kainic acid both of which are agonists for non-NMDA receptors was dissolved until a final concentration of 100 μM. The responses are shown as relative values which were measured on the oocytes under perfusion of frog Ringer's solution in which the compound of the invention and anilacetum which is a potentiator for non-NMDA receptors were dissolved until a concentration of 50 μM with AMPA or kainic acid.

non-NMDA receptors [2] = assay: Inward membrane current elicited by the compound alone in Xenopus oocytes injected with rat hippocampus poly(A)+ RNA (agonist action); format: cell-based; details: antagonist 1 μM
Procedure: as §1, §2

[3] = 50 μM test substance with 100 μM AMPA, membrane potential -70 mV, control (AMPA alone) = 1
[4] = 50 μM test substance with 100 μM kainic acid, membrane potential -70 mV, control (kainic acid alone) = 1

SMILES	Potentiation (relative values with a control as 1), AMPA (non-NMDA receptors [1]; xenopus oocytes, 50 µM)	Potentiation (relative values with a control as 1), kainic acid (non-NMDA receptors [1]; xenopus oocytes, 50 µM)	further results
N#Cc1cc2[nH]c(=O)c(=O)[nH]c2cc1[N+](=O)[O-] [CNQX, reference compound]	–	–	Inhibition of inward membrane current elicited by AMPA (100 μM) or kainate (100 μM) (non-NMDA receptors [1]; antagonist 1 μM, -70 mV): inhibited; Inhibition of inward membrane current elicited by the compound of the invention alone (non-NMDA receptors [2]): inhibited
O=C(O)COc1c(F)cc(SCCNS(=O)(=O)c2ccc(Cl)cc2)cc1F [Compound 68, 2,6-Difluoro-4-[2-(4-chlorophenylsulfonylamino)ethylthio]phenoxyacetic acid]	1.5	1.6	–
O=C(O)COc1ccc(SCCNS(=O)(=O)c2ccc(Br)cc2)cc1F [Compound 106, 2-Fluoro-4-[2-(4-bromophenylsulfonylamino)ethylthio]phenoxyacetic acid]	1.4	1.5	–
COC(=O)COc1c(F)cc(SCCNS(=O)(=O)c2ccc(Cl)cc2)cc1F [Compound 128, methyl 4-[2-(4-chlorophenylsulfonylamino)ethylthio]-2,6-difluorophenoxyacetate]	1.5	1.6	–
NC(=O)COc1c(F)cc(SCCNS(=O)(=O)c2ccccc2)cc1F [Compound 139, 4-[2-(Phenylsulfonylamino)ethylthio]-2,6-difluorophenoxyacetamide]	–	–	Potentiation of the non-NMDA receptor response (membrane current elicited by kainic acid and AMPA), in words (non-NMDA receptors [1]; 50 μM compound with 100 μM AMPA or kainic acid): definitely active; also recorded: especially strong action; Potentiation (relative values with a control as 1), AMPA (non-NMDA receptors [1]; [3]): 23.2; Potentiation (relative values with a control as 1), kainic acid (non-NMDA receptors [1]; [4]): 2.8
NC(=O)COc1ccc(SCCNS(=O)(=O)c2ccccc2)cc1F [Compound 142, 4-[2-(Phenylsulfonylamino)ethylthio]-2-fluorophenoxyacetamide]	1.6	1.5	–
CN(C)C(=O)COc1ccc(SCCNS(=O)(=O)c2ccccc2)cc1F [Compound 143, N,N-Dimethyl-4-[2-(phenylsulfonylamino)ethylthio]-2-fluorophenoxyacetamide]	1.4	1.6	–
NC(=O)Cc1ccc(SCCNS(=O)(=O)c2ccccc2)cc1 [Compound 145, 4-[2-(phenylsulfonylamino)ethylthio]phenylacetamide]	1.3	1.5	–
C[C@]12N[C@H](Cc3ccccc31)c1ccccc12 [MK-801]	–	–	Inhibition of inward membrane current elicited by the compound of the invention alone (non-NMDA receptors [2]): not inhibited
COc1ccc(C(=O)N2CCCC2=O)cc1 [anilacetum, reference compound]	–	–	Potentiation (relative values with a control as 1), AMPA (non-NMDA receptors [1]; [3]): does not potentiate; Potentiation (relative values with a control as 1), AMPA (non-NMDA receptors [1]; 50 μM test substance with 100 μM AMPA, membrane potential -70 mV, control (AMPA alone) = 1, 50 µM): 1; Potentiation (relative values with a control as 1), kainic acid (non-NMDA receptors [1]; [4]): does not potentiate; Potentiation (relative values with a control as 1), kainic acid (non-NMDA receptors [1]; 50 μM test substance with 100 μM kainic acid, membrane potential -70 mV, control (kainic acid alone) = 1, 50 µM): 1; Effect on response elicited by AMPA (non-NMDA receptors [1]; 1 mM test substance): doubles; Effect on response elicited by kainic acid (non-NMDA receptors [1]; 1 mM test substance (20 times in concentration)): does not affect
